Measurements: US6551602B1, “Skin care composition containing conjugated linoleic acid and a phenolic compound” (Conopco, Inc., priority 1999, dated 2003)

Columns and labels:
Format in all cases: cell-based
[1] = test system: PGE2 production by human skin fibroblasts; assay: Fibroblast PGE2 assay (PMA-induced); details: PMA 10 nM
Procedure: Fibroblasts PGE2 and ICAM Assay
Intracellular adhesion molecules (ICAM) and PEG2 production by human skin fibroblasts can be induced by the inflammatory stimulus PMA (phorbal myristate acetate). PMA represents an external stressor which induces oxidative stress and inflammatory responses in cells. This model is used to model inflammation in vivo.
(§1) Primary human foreskin fibroblasts at passage 2 (P2) were seeded into 96-well plates at 10000 cells/well and maintained for 24 hours in an atmosphere of 5% carbon dioxide in Dulbeccos Modified Eagles Medium (DMEM) supplemented with 10% foetal calf serum. The test substances as indicated in the table 7 below were added to fresh cell media (DMEM, supplemented with 10% foetal calf serum) in dimethylsulphoxide and ethanol final concentration<1%) in triplicate and incubated for a further 24 hours. Phorbal myristate acetate (PMA) (Sigma) was added 10 nM to the media and the cells incubated for a further 24 hours. […] The fibroblasts/media were then analysed as described below immediately or snap frozen in liquid nitrogen and stored at −70° C. for future analysis. The cells were then counted and data from the dot-blot analysis subsequently standardised to cell number.
Prostaglandin E2 (PGE2) Assay
Volumes of 50 μl culture medium were taken for PGE2 assay after gently shaking the culture plate. PGE2 levels in the medium were determined with a Biotrak PGE2 immunoassay kit (Amersham, UK). The assay is based on the competition between unlabelled PGE2 in the sample and a fixed quantity of horseradish peroxidase labelled PGE2 for a limited amount of fixed PGE2 specific antibody. Concentrations of unlabelled sample PGE2 are determined according to a standard curve which was obtained at the same time.

[2] = test system: ICAM production by human skin fibroblasts; assay: Fibroblast ICAM-1 assay (PMA-induced); details: PMA 10 nM
Procedure: as §1, with “Fibroblasts PGE2 and ICAM Assay Intracellular adhesion molecules (ICAM) and PEG2 production by human skin fibroblasts can be induced by the inflammatory stimulus PMA (phorbal myristate acetate). PMA represents an external stressor which induces oxidative stress and inflammatory responses in cells. This model is used to model inflammation in vivo. Primary” for “Primary”, “hours.” for “hours. Phorbal myristate acetate (PMA) (Sigma) was added 10 nM to the media and the cells incubated for a further 24 hours.”, “number. […] The soluble ICAM-1 was assessed with commercially available immunoenzymometric assay kit (R&D Systems). Concentrations of ICAM-1 in the samples were determined based on parallel running standard curve.” for “number.”

[3] = test system: decorin synthesis in human dermal fibroblasts; assay: Dot blot assay for decorin protein in dermal fibroblast conditioned medium; details: 24 h, relative to vehicle treated control = 100 arbitrary units
Procedure: Procedure for Measuring Procollagen-I and Decorin Synthesis in Human Dermal Fibroblasts
Preparation of Dermal Fibroblast Conditioned Medium
Primary human foreskin fibroblasts at passage 2 (P2) were seeded into 12-well plates at 10000 cells/cm^2 and maintained for 24 hours in an atmosphere of 5% carbon dioxide and 4% oxygen in Dulbeccos Modified Eagles Medium (DMEM) supplemented with 10% foetal calf serum. After this time the cells were washed with serum free DMEM and then incubated in fresh serum free DMEM for a further 60 hours.
The fibroblast monolayers were then washed again with serum free DMEM. […] This fibroblast conditioned medium was either analysed immediately or snap frozen in liquid nitrogen and stored at −70° C. for future analysis. The cells were then counted and data from the dot-blot analysis subsequently standardised to cell number. […]
Membranes prepared for decorin analysis were blocked with 3% (w/v) BSA/0.1% (v/v) Tween 20 in PBS, whilst those for procollagen-I analysis were blocked with 5% (w/v) non fat dried milk powder/0.05% Tween 20 in PBS. […] Dot intensity was assessed by computer-assisted image analysis using the quantification tools in ImageQuant™, standardised to cell number and the effects of various test reagents on decorin and procollagen-I synthesis were determined relative to a vehicle treated control value of 100 arbitrary units. […]

O=C(O[C@@H]1Cc2c(O)cc(O)cc2O[C@@H]1c1cc(O)c(O)c(O)c1)c1cc(O)c(O)c(O)c1 [EGCG, epigallocatechin gallate]
% of Inhibition of Fibroblast PGE2 Levels ([1]; EGCG 5 μM): 35.6% | % of inhibition of fibroblast ICAM production ([2]; EGCG 5 μM): 4.5% | Decorin ([3]; 0.5 μg/ml EGCG): −99.6%

O=c1c(-c2ccc(O)cc2)coc2cc(O)cc(O)c12 [genistein]
inhibition at 5 µM ([1]; Homo sapiens, Skin fibroblast, genistein 5 μM, read-out: % of Inhibition of Fibroblast PGE2 Levels): 52%

conjugated linoleic acid [CLA]
% of Inhibition of Fibroblast PGE2 Levels ([1]; CLA 0.1 μM): 16.9% | % of Inhibition of Fibroblast PGE2 Levels ([1]; CLA 5 μM): 14.5% | % of inhibition of fibroblast ICAM production ([2]; CLA 1 μM): 27.7% | Decorin ([3]; 0.1 μM CLA): 68.29%
